From ChEMBL document CHEMBL1136041, “Capped dipeptide alpha-ketoacid inhibitors of the HCV NS3 protease” (Bioorg Med Chem Lett, 2002)

Biological target: Hepatitis C virus serine protease, NS3/NS4A (Hepatitis C virus, UniProt A3EZI9+D2K2A8)
Assay: Inhibitory concentration evaluated against NS3/4A protease.
Type: protein-complex assay, Hepacivirus hominis

Hepatitis C virus serine protease, NS3/NS4A, sequence (D2K2A8 whole entry): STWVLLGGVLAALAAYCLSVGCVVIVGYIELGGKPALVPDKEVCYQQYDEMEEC
Hepatitis C virus serine protease, NS3/NS4A, sequence (A3EZI9 whole entry): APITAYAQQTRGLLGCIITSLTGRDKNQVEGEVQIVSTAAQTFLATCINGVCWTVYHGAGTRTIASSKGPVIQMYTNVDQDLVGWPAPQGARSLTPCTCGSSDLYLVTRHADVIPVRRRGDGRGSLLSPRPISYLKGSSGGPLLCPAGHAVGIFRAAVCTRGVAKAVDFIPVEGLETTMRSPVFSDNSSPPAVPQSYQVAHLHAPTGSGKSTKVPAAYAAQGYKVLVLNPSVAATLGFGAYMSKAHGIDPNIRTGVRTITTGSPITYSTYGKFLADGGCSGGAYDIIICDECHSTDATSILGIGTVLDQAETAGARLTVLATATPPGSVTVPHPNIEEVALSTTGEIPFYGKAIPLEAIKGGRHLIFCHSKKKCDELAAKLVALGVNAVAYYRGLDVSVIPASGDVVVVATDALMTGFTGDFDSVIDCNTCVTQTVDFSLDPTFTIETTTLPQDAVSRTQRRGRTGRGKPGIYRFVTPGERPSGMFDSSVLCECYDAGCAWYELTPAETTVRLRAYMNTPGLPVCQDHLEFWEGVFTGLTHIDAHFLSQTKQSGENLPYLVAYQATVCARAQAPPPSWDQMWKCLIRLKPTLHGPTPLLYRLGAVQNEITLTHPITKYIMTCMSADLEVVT

SMILES | IC50
CC(C)C[C@H](NC(=O)Cn1nc(-c2ccccc2)c2ccccc2c1=O)C(=O)N[C@@H](CC(F)F)C(=O)C(=O)O | > 200 µM
CC(C)C[C@H](NC(=O)Cn1c(-c2ccccc2)nc2ccccc21)C(=O)N[C@@H](CC(F)F)C(=O)C(=O)O | > 200 µM
CC(C)C[C@H](NC(=O)[C@H](O)c1ccccc1Cl)C(=O)N[C@@H](CC(F)F)C(=O)C(=O)O | 41 µM
CC(C)C[C@H](NC(=O)C(Sc1ccccc1)c1ccccc1)C(=O)N[C@@H](CC(F)F)C(=O)C(=O)O (some centres not stated) | 7 µM
CC(C)C[C@H](NC(=O)CC(c1ccccc1)c1ccccc1)C(=O)N[C@@H](CC(F)F)C(=O)C(=O)O | > 200 µM
CC(C)C[C@H](NC(=O)[C@H](O)c1ccc(Cl)cc1)C(=O)N[C@@H](CC(F)F)C(=O)C(=O)O | 13 µM
CC(C)C[C@H](NC(=O)[C@H](O)c1cccs1)C(=O)N[C@@H](CC(F)F)C(=O)C(=O)O | 18 µM
COc1ccc(C(=O)N[C@@H](CC(C)C)C(=O)N[C@@H](CC(F)F)C(=O)C(=O)O)c(OC)c1OC | > 200 µM
CC(C)C[C@H](NC(=O)C(Cc1ccccc1)c1ccccc1)C(=O)N[C@@H](CC(F)F)C(=O)C(=O)O (some centres not stated) | > 30 µM
COc1ccc(C(Oc2ccccc2)C(=O)N[C@@H](CC(C)C)C(=O)N[C@@H](CC(F)F)C(=O)C(=O)O)cc1 (some centres not stated) | 18 µM
CC(C)C[C@H](NC(=O)[C@@H](O)c1ccccc1)C(=O)N[C@@H](CC(F)F)C(=O)C(=O)O | > 100 µM
CC(C)C[C@H](NC(=O)[C@@H](NC(=O)OC(C)(C)C)C1CCCC1)C(=O)N[C@@H](CC(F)F)C(=O)C(=O)O | 0.38 µM
CC(C)C[C@H](NC(=O)[C@H](O)c1ccc(C(F)(F)F)cc1)C(=O)N[C@@H](CC(F)F)C(=O)C(=O)O | 28 µM
COc1ccc([C@@H](O)C(=O)N[C@@H](CC(C)C)C(=O)N[C@@H](CC(F)F)C(=O)C(=O)O)cc1 | 13 µM
CC(C)C[C@H](NC(=O)c1cccc(Oc2ccccc2)c1)C(=O)N[C@@H](CC(F)F)C(=O)C(=O)O | > 200 µM
CC(C)C[C@H](NC(=O)[C@H](O)C1CCCCC1)C(=O)N[C@@H](CC(F)F)C(=O)C(=O)O | 7 µM
CC(C)C[C@H](NC(=O)[C@H](O)c1ccccc1)C(=O)N[C@@H](CC(F)F)C(=O)C(=O)O | 3 µM
